Drawing on patent US20230077362A1 (CORTEVA AGRISCIENCE LLC, priority 2019, published 2023), this text covers pest or weed control for 18 compounds.

Common to all, as to assay type: in vivo
Assay [1] has as its system Cabbage Looper (Trichoplusia ni) ("CL"), second instar larvae. The assay is described as follows: Bioassay on cabbage looper (CL), 128-well diet tray assay. Particulars: Trichoplusia ni, read-out: CL (Biological Results, rating). The method, boiled down: (§1)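 Each value represents average percent mortality from eight wells. Larvae were kept in clear-covered trays at 25° C. for five to seven days on a 14-hour light, 10-hour dark schedule before scoring.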

The subject of assay [2] is Beet Armyworm (Spodoptera exigua) ("BAW"), second instar larvae. The assay is described as follows: Bioassay on beet armyworm (BAW), 128-well diet tray assay. Conditions: Spodoptera exigua, read-out: BAW (Biological Results, rating). In outline:
as §1

The subject of assay [3] is Green Peach Aphid ("GPA") (Myzus persicae), wingless adult and nymph stages. Description: Bioassay on green peach aphid (GPA), foliar spray on infested cabbage seedlings. Particulars: Myzus persicae, foliar, 72 h, read-out: GPA (Biological Results, rating). In outline:
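Cabbage seedlings with 2-3 true leaves, infested one day earlier with 20-50 wingless adult and nymph GPA, sprayed to runoff on both leaf sides; solvent check held 20% acetone/methanol (1:1). Live aphids counted after three days at about 25° C; corrected % control = 100*(X−Y)/X versus solvent check.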

For `Cc1ccc(OCCCC(F)(F)F)c(N2C(=O)CS/C2=N\C(=O)Nc2ccc(-c3ncn(-c4ccc(SC(F)(F)F)cc4)n3)cc2F)c1` [Compound J225, (Z)-1-(2-Fluoro-4-(1-(4-((trifluoromethyl)thio)phenyl)-1H-1,2,4-triazol-3-yl)phenyl)-3-(3-(5-methyl-2-(4,4,4-trifluorobutoxy)phenyl)-4-oxothiazolidin-2-ylidene)urea], the pest or weed control at 50 µg/cm2 in assay [1] and in assay [2] was 50 to 100% in each case. Further, the pest or weed control at 200 µg/mL in assay [3] was in the range of 0 to 80%.

On to `COC(c1ccc(C)cc1N1C(=O)CS/C1=N\C(=O)Nc1ccc(-c2ncn(-c3ccc(SC(F)(F)F)cc3)n2)cc1F)C(F)(F)F` (stereo not drawn) [Compound J229, (Z)-1-(2-Fluoro-4-(1-(4-((trifluoromethyl)thio)phenyl)-1H-1,2,4-triazol-3-yl)phenyl)-3-(3-(5-methyl-2-(2,2,2-trifluoro-1-methoxyethyl)phenyl)-4-oxothiazolidin-2-ylidene)urea], for which the pest or weed control at 50 µg/cm2 in assay [1] and in assay [2] was 50 to 100% each time. Besides, in assay [3], the pest or weed control at 200 µg/mL is 0 to 80%.

For `CCOC(C)c1ccc(C)cc1N1C(=O)CS/C1=N\C(=O)Nc1ccc(-c2ncn(-c3ccc(SC(F)(F)F)cc3)n2)cc1F` (stereo not drawn) [Compound J230, (Z)-1-(3-(2-(1-Ethoxyethyl)-5-methylphenyl)-4-oxothiazolidin-2-ylidene)-3-(2-fluoro-4-(1-(4-((trifluoromethyl)thio)phenyl)-1H-1,2,4-triazol-3-yl)phenyl)urea], the pest or weed control at 50 µg/cm2 in assay [1] and in assay [2] was 50 to 100% each time. In addition, the pest or weed control at 200 µg/mL in assay [3] is 0 to 80%.

For `Cc1ccc(C(C)C)c(N2C(=O)CS/C2=N\C(=O)Nc2ccc(-c3ncn(-c4ccc(SC(F)(F)F)cc4)n3)cc2Cl)c1` [Compound J231, (Z)-1-(2-Chloro-4-(1-(4-((trifluoromethyl)thio)phenyl)-1H-1,2,4-triazol-3-yl)phenyl)-3-(3-(2-isopropyl-5-methylphenyl)-4-oxothiazolidin-2-ylidene)urea], the pest or weed control at 50 µg/cm2 in assay [1] and in assay [2] was 50 to 100% in each case. Further, the pest or weed control at 200 µg/mL in assay [3] fell in the range of 0 to 80%.

Turning to `COC(C)c1ccc(C)cc1N1C(=O)CS/C1=N\C(=O)Nc1ccc(-c2ncn(-c3ccc(SC(F)(F)F)cc3)n2)cc1Cl` (stereo not drawn) [Compound J232, (Z)-1-(2-Chloro-4-(1-(4-((trifluoromethyl)thio)phenyl)-1H-1,2,4-triazol-3-yl)phenyl)-3-(3-(2-(1-methoxyethyl)-5-methylphenyl)-4-oxothiazolidin-2-ylidene)urea], the pest or weed control at 50 µg/cm2 in assay [1] and in assay [2] was 50 to 100% in each case. For the same compound, the pest or weed control at 200 µg/mL in assay [3] lay in the range of 0 to 80%.

In the case of `Cc1ccc(C(C)C)c(N2C(=O)CS/C2=N\C(=O)Nc2ccc(-c3ncn(-c4ccc(C#N)cc4)n3)cc2F)c1` [Compound J287, (Z)-1-(4-(1-(4-Cyanophenyl)-1H-1,2,4-triazol-3-yl)-2-fluorophenyl)-3-(3-(2-isopropyl-5-methylphenyl)-4-oxothiazolidin-2-ylidene)urea], the pest or weed control at 50 µg/cm2 in assay [1] and in assay [2] was 50 to 100% each time. Also, the pest or weed control at 200 µg/mL in assay [3] was 0 to 80%.

As for `Cc1ccc(OCCC(F)(F)F)c(N2C(=O)CS/C2=N\C(=O)Nc2ccc(-c3ncn(-c4ccc(C#N)cc4)n3)cc2F)c1` [Compound J288, (Z)-1-(4-(1-(4-Cyanophenyl)-1H-1,2,4-triazol-3-yl)-2-fluorophenyl)-3-(3-(5-methyl-2-(3,3,3-trifluoropropoxy)phenyl)-4-oxothiazolidin-2-ylidene)urea], the pest or weed control at 50 µg/cm2 in assay [1] and in assay [2] was 50 to 100% each time. Also, in assay [3], the pest or weed control at 200 µg/mL lay in the range of 0 to 80%.

Turning to `Cc1ccc(COCC(F)(F)F)c(N2C(=O)CS/C2=N\C(=O)Nc2ccc(-c3ncn(-c4ccc(C#N)cc4)n3)cc2F)c1` [Compound J289, (Z)-1-(4-(1-(4-Cyanophenyl)-1H-1,2,4-triazol-3-yl)-2-fluorophenyl)-3-(3-(5-methyl-2-((2,2,2-trifluoroethoxy)methyl)phenyl)-4-oxothiazolidin-2-ylidene)urea], the pest or weed control at 50 µg/cm2 in assay [1] and in assay [2] was 50 to 100% throughout. In addition, the pest or weed control at 200 µg/mL in assay [3] was in the range of 0 to 80%.

Take `COC(C)c1ccc(C)cc1N1C(=O)CS/C1=N\C(=O)Nc1ccc(-c2ncn(-c3ccc(C#N)cc3)n2)cc1F` (stereo not drawn) [Compound J291, (Z)-1-(4-(1-(4-Cyanophenyl)-1H-1,2,4-triazol-3-yl)-2-fluorophenyl)-3-(3-(2-(1-methoxyethyl)-5-methylphenyl)-4-oxothiazolidin-2-ylidene)urea]: the pest or weed control at 50 µg/cm2 in assay [1] and in assay [2] was 50 to 100% throughout. In assay [3], the pest or weed control at 200 µg/mL is 0 to 80%.

In the case of `COc1ccc(C(C)C)c(N2C(=O)CS/C2=N\C(=O)Nc2ccc(-c3ncn(-c4ccc(OC(F)(F)F)cc4)n3)cc2F)c1` [Compound J312], the pest or weed control at 50 µg/cm2 in assay [1] and in assay [2] was 50 to 100% in each case. Moreover, the pest or weed control at 200 µg/mL in assay [3] lay in the range of 0 to 80%.

Regarding `Cc1ccc(C(C)C)c(N2C(=O)C(Cl)S/C2=N\C(=O)Nc2ccc(-c3ncn(-c4ccc(OC(F)(F)F)cc4)n3)cc2)c1` (stereo not drawn) [Compound J314, (Z)-1-(5-Chloro-3-(2-isopropyl-5-methylphenyl)-4-oxothiazolidin-2-ylidene)-3-(4-(1-(4-(trifluoromethoxy)phenyl)-1H-1,2,4-triazol-3-yl)phenyl)urea], the pest or weed control at 50 µg/cm2 in assay [1] and in assay [2] was 50 to 100% throughout. For the same compound, the pest or weed control at 200 µg/mL in assay [3] is 0 to 80%.

For the compound `Cc1ccc(OCCC(F)(F)F)c(N2C(=O)CS/C2=N\C(=O)Nc2ccc(-c3ncn(-c4ccc(C(F)(F)F)cc4)n3)cc2)c1` [Compound J315, (Z)-1-(3-(5-Methyl-2-(3,3,3-trifluoropropoxy)phenyl)-4-oxothiazolidin-2-ylidene)-3-(4-(1-(4-(trifluoromethyl)phenyl)-1H-1,2,4-triazol-3-yl)phenyl)urea], the pest or weed control at 50 µg/cm2 in assay [1] and in assay [2] was 50 to 100% in each case. Besides, the pest or weed control at 200 µg/mL in assay [3] is 0 to 80%.

With `Cc1ccc(OCCC(F)(F)F)c(N2C(=O)CS/C2=N\C(=O)Nc2ccc(-c3ncn(-c4ccc(OC(F)(F)F)cc4)n3)cc2)c1` [Compound J316, (Z)-1-(3-(5-Methyl-2-(3,3,3-trifluoropropoxy)phenyl)-4-oxothiazolidin-2-ylidene)-3-(4-(1-(4-(trifluoromethoxy)phenyl)-1H-1,2,4-triazol-3-yl)phenyl)urea], the pest or weed control at 50 µg/cm2 in assay [1] and in assay [2] was 50 to 100% throughout. Further, the pest or weed control at 200 µg/mL in assay [3] is 0 to 80%.

For `CC(C)c1ccc(N(C)C)cc1N1C(=O)CS/C1=N\C(=O)Nc1ccc(-c2ncn(-c3ccc(OC(F)(F)F)cc3)n2)cc1F` [Compound J318, (Z)-1-(3-(5-(Dimethylamino)-2-isopropylphenyl)-4-oxothiazolidin-2-ylidene)-3-(2-fluoro-4-(1-(4-(trifluoromethoxy)phenyl)-1H-1,2,4-triazol-3-yl)phenyl)urea], the pest or weed control at 50 µg/cm2 in assay [1] and in assay [2] was 50 to 100% each time. For the same compound, in assay [3], the pest or weed control at 200 µg/mL fell in the range of 0 to 80%.

Turning to `CC(C)c1ccc(N(C)C)cc1N1C(=O)CS/C1=N\C(=O)Nc1ccc(-c2ncn(-c3ccc(OC(F)(F)F)cc3)n2)cc1` [Compound J319, (Z)-1-(3-(5-(Dimethylamino)-2-isopropylphenyl)-4-oxothiazolidin-2-ylidene)-3-(4-(1-(4-(trifluoromethoxy)phenyl)-1H-1,2,4-triazol-3-yl)phenyl)urea], the pest or weed control at 50 µg/cm2 in assay [1] and in assay [2] was 50 to 100% each time. Moreover, the pest or weed control at 200 µg/mL in assay [3] was 0 to 80%.

For `COc1ccc(C(C)C)c(N2C(=O)CS/C2=N\C(=O)Nc2ccc(-c3ncn(-c4cccc(C(F)(F)F)c4)n3)cc2)c1` [Compound J324, (Z)-1-(3-(2-Isopropyl-5-methoxyphenyl)-4-oxothiazolidin-2-ylidene)-3-(4-(1-(3-(trifluoromethyl)phenyl)-1H-1,2,4-triazol-3-yl)phenyl)urea], the pest or weed control at 50 µg/cm2 in assay [1] and in assay [2] was 50 to 100% in each case. Also, the pest or weed control at 200 µg/mL in assay [3] is 0 to 80%.

`CC(C)c1ccc(N(C)C)cc1N1C(=O)CS/C1=N\C(=O)Nc1ccc(-c2ncn(-c3cccc(C(F)(F)F)c3)n2)cc1` [Compound J325, (Z)-1-(3-(5-(Dimethylamino)-2-isopropylphenyl)-4-oxothiazolidin-2-ylidene)-3-(4-(1-(3-(trifluoromethyl)phenyl)-1H-1,2,4-triazol-3-yl)phenyl)urea]: the pest or weed control at 50 µg/cm2 in assay [1] and in assay [2] was 50 to 100% in each case. In addition, the pest or weed control at 200 µg/mL in assay [3] lay in the range of 0 to 80%.

In the case of `Cc1ccc(OCCC(F)(F)F)c(N2C(=O)CS/C2=N\C(=O)Nc2ccc(-c3ncn(-c4cccc(C(F)(F)F)c4)n3)cc2)c1` [Compound J326, (Z)-1-(3-(5-Methyl-2-(3,3,3-trifluoropropoxy)phenyl)-4-oxothiazolidin-2-ylidene)-3-(4-(1-(3-(trifluoromethyl)phenyl)-1H-1,2,4-triazol-3-yl)phenyl)urea], the pest or weed control at 50 µg/cm2 in assay [1] and in assay [2] was 50 to 100% throughout. In assay [3], the pest or weed control at 200 µg/mL was in the range of 0 to 80%.
